Legend:
[1] = test system: antigen-induced airway hyperreactivity; test: Antigen-induced airway hyperactivity assay in ovalbumin-sensitized guinea pigs; type: in vivo, guinea pig; details: for Increase in Airway Resistance (Area Under Curve) / Dynamic Lung Compliance (Area Under Curve): 24 hours prior to antigen challenge, histamine challenge i.v.; for Increase in Airway Resistance (Area Under Curve): Saline 3490, OVA (no treatment) 12586; for Dynamic Lung Compliance (Area Under Curve): Saline −799, OVA (no treatment) −1386
Description: Antigen sensitization and challenge: Male Hartley guinea pigs (225-250 g) were sensitized with ovalbumin (0.5 ml of 1% solution, i.p. and s.c.) on day 1 (Aug. 25, 2008). On day 4 (Aug. 28, 2008), animals received a booster injection (i.p.) of 0.5 ml of 1% ovalbumin. On day 21 (Sep. 16, 2008), animals were orally dosed (2 ml/kg) with either vehicle (0.5% methylcellulose/0.2% Tween 80) or compound(s) 24 hours prior to antigen challenge. Thirty minutes before antigen challenge the animals were also injected with mepyramine (10 mg/kg, i.p.) to prevent anaphylactic collapse. Animals were then exposed for 20 min to an aerosol of 1% ovalbumin using a DeVilbiss Ultraneb nebulizer. Negative control animals were not challenged. Sensitizing solution: One gram (1 g) of albumin from chicken egg white (Sigma A55031G; lot#087K7004) was added to 100 ml of saline and allowed to go into solution.
Airway resistance measurement: Eighteen to twenty four hours after challenge, animals were anesthetized, (0.5 ml dose (i.m.) of cocktail containing ketamine (62 mg/kg), xylazine (30 mg/kg) and Promace (1.5 mg/kg)), surgically prepared and then placed in a whole body plethysmograph. Animals were connected to Ugo-Basile ventilators delivering a tidal volume of 1 ml/100 g at a rate of 50 breaths/minute via a tracheal cannula. The jugular vein is also cannulated for histamine challenge. A-water filled esophageal cannula was placed such that transpulmonary pressure could be recorded. Transpulmonary pressure was measured as the difference between the tracheal and esophageal cannulas using a differential pressure transducer. The volume, airflow, and transpulmonary pressure signals are monitored using a pulmonary analysis system (Buxco XA software) and used to calculate pulmonary resistance (cmH2O/ml/s) and dynamic compliance (ml/cmH20). Airway resistance and dynamic compliance are computed on a breath-by-breath basis. Histamine is administered intravenously and reactivity to increasing concentrations (1-20 μg/kg) assessed.

[2] = Suspension of benzoate salt in water, solid form checked by XRPD and thermal analysis; type: physicochemical; details: 50 mg/mL free base equivalent in nanopure water, total 29 hours as suspension, then air dried
Description: Sample Preparation: Material was prepared as in the reference example 3 above. A suspension of the benzoate salt was prepared as 50 mg/mL free base equivalent in nanopure water, which was 63.6 mg salt in 1 mL water. Sample was stirred at 500 rpm overnight and allowed to stand for 4 hours before it was centrifuged (total 29 hours as suspension). It was centrifuged at 13000 rpm for 8 minutes and the collected solid was analyzed by XRPD (x-ray power diffraction) as wet sample and evaluated by microscope. The wet solid was then air dried at ambient room temperature overnight to be analyzed as the dry sample by XRPD and thermal analysis. The as is drug substance is compared as the initial material. The XRPD of free base drug substance was also used as the comparison. The benzoate appeared to be a variable hydrate, with the XRPD displaying the same peaks for different amounts of water.
• XRPD Method • Siemens Model D5000 with Cu anticathode • Program: 1.0 Sec. dql • Range: 2° to 40°. […]

[3] = target: T1, recombinant human β tryptase (Homo sapiens, UniProt Q15661); test: β-Tryptase inhibitory potency, in vitro enzyme assay (IC50 and Ki determination); type: biochemical; details: 0.5 mM substrate S2366 (2×Km), room temperature, pH 8.2; Ki=IC50/(1+[Substrate]/Km)
T1 construct: made in house; host or cells: yeast cells
T1 sequence (Q15661 31-275): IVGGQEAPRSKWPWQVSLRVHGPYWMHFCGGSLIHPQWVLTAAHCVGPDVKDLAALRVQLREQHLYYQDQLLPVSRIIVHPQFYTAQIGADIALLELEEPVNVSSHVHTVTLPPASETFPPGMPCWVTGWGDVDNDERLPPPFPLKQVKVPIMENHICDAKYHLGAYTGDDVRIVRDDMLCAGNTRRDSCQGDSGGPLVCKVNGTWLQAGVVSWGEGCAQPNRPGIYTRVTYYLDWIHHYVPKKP
Description: Tryptase inhibition activity is confirmed using either isolated human lung tryptase or recombinant human β tryptase expressed in yeast cells. Essentially equivalent results are obtained using isolated native enzyme or the expressed enzyme. The assay procedure employs a 96 well microplate (Costar 3590) using L-pyroglutamyl-L-prolyl-L-arginine-para-nitroanilide (S2366: Quadratech) as substrate (essentially as described by McEuen et. al. Biochem Pharm, 1996, 52, pages 331-340). Assays are performed at room temperature using 0.5 mM substrate (2×Km) in 50 mM Tris (pH 8.2), 100 mM NaCl, 0.05% Tween 20, 50 μg/mL heparin, and the microplate is read on a microplate reader (Beckman Biomek Plate reader) at 405 nm wavelength.
The protocol is essentially the same as above except that the compound is added in duplicates at the following final concentrations: 0.01, 0.03, 0.1, 0.3, 1, 3, 10 μM (All dilutions carried out manually). For every assay, whether single point or IC50 determination, a standard compound is used to derive IC50 for comparison. From the IC50 value, the Ki can be calculated using the following formula: Ki=IC50/(1+[Substrate]/Km).

## COCCn1cc(C(=O)N2CCC(c3cc(CN)ccc3F)CC2)c2c(OC(F)(F)F)ccc(F)c21.COCCn1cc(C(=O)N2CCC(c3cc(CN)ccc3F)CC2)c2c(OC(F)(F)F)ccc(F)c21.O.O.O=C(O)/C=C/C(=O)O.O=C(O)/C=C/C(=O)O.O=C(O)/C=C/C(=O)O [Fumarate Salt, [4-(5-Aminomethyl-2-fluorophenyl)piperidine-1-yl][7-fluoro-1-(2-methoxyethyl)-4-trifluoromethoxy-1H-indol-3-yl]methanone Sesquifumarate Monohydrate]
[1]; 0.01 mg/kg oral
  Increase in Airway Resistance (Area Under Curve): 9647 +/− 818
  Dynamic Lung Compliance (Area Under Curve): −1218 +/− 47
[1]; 0.03 mg/kg oral
  Increase in Airway Resistance (Area Under Curve): 8103 +/− 745
  Dynamic Lung Compliance (Area Under Curve): −1156 +/− 40
[1]; 0.1 mg/kg oral
  Increase in Airway Resistance (Area Under Curve): 6623 +/− 511
  Dynamic Lung Compliance (Area Under Curve): −1004 +/− 43
[1]; dosed 24 hours prior to allergen challenge, guinea pig, oral
  Inhibition of antigen-induced airway hyperreactivity (in words): dose-related inhibition of antigen-induced airway hyperreactivity

## COCCn1cc(C(=O)N2CCC(c3cc(CN)ccc3F)CC2)c2c(OC(F)(F)F)ccc(F)c21.O=C(O)c1ccccc1 [benzoate salt, [4-(5-Aminomethyl-2-fluorophenyl)piperidine-1-yl][7-fluoro-1-(2-methoxyethyl)-4-trifluoromethoxy-1H-indol-3-yl]methanone Benzoate]
[2]
  Solid form stability in aqueous suspension (XRPD and thermal analysis): no free base or conversions to hydrate form were noted

## COCCn1cc(C(=O)N2CCC(c3cc(CN)ccc3F)CC2)c2c(OC(F)(F)F)ccc(F)c21 [compound of formula I, [4-(5-aminomethyl-2-fluoro-phenyl)-piperidin-1-yl]-[7-fluoro-1-(2-methoxy-ethyl)-4-trifluoromethoxy-1H-indol-3-yl]-methanone]
[3]
  Ki: 26 ± 5 nM
